US20260226043A1, “POLYMORPHS OF THE MALEIC ACID SALT OF LINAPRAZAN GLURATE” (Cinclus Pharma Holding AB (publ), priority 2023, published 2026)
“Also recorded” adds a separate entry of the source. Like-named read-outs stand apart in the source and are kept apart here. Marks after values point to notes of the source that are not given here.

How the values were obtained:
clinical = details: human, in vivo
Experimental: Linaprazan glurate is a prodrug of linaprazan, which was disclosed in WO 99/55706 and previously studied in Phase I and II studies. […] A clinical Phase I study has shown that administration of a single dose of linaprazan glurate can maintain the intragastric acidity above pH 4 for 24 hours. Linaprazan glurate is therefore tailored for patients with severe erosive gastroesophageal reflux disease (eGERD).
It is estimated that this requires a minimal plasma concentration (Cmin) of linaprazan of at least about 240 nmol/L after 22 hours. At such doses, a once daily oral administration of the formulation would be sufficient. In some embodiments, therefore, a single unit dose of a pharmaceutical composition of linaprazan glurate provides a Cmin of linaprazan in a human of at least about 240 nmol/L after 22 hours following oral administration of the pharmaceutical composition to said human. In other embodiments, a daily administration of two unit doses of a pharmaceutical composition of linaprazan glurate provides a Cmin of linaprazan in a human of at least about 240 nmol/L after 10 hours following oral administration of the last unit dose of the pharmaceutical composition to said human.

gastric acid = details: Phase I and II studies; cited from earlier work
[1] = Phase I and II studies; cited from earlier work
[2] = free base Form A; cited from earlier work
[3] = cited from earlier work
intragastric acidity = details: cited from earlier work
[4] = cited from earlier work; remark: listed apart in the source
[5] = Slurry experiments (solid form stability, XRPD); assay type: physicochemical
Experimental: Slurry experiments were performed in various solvents. The samples were slurried for different periods of time depending on temperature. […] The water-containing slurries were performed to investigate possible hydrate formation.
Details of all slurry experiments performed, including solvent(s) used, total concentration and final form by XRPD, are given in Table 1.
Approximately 30 mg of linaprazan glurate maleic acid salt was used for each experiment, together with 20 different solvents (pure and binary solvents) at room temperature, at 4° C., at 40° C., and at 60° C., unless indicated otherwise. […] The solid phase was isolated and analysed with XRPD. The sample run at fridge temperature (ca 4° C.) was analysed after 26 and 53 days of slurry. The samples run at RT were analysed after 26 days of slurry. The samples run at 40° C. were analysed after 6 and 12 days of slurry. The samples run at 60° C. were analysed after 1 day of slurry.

[6] = Thermogravimetric analysis (TGA)
Experimental: Analyses were performed on a PerkinElmer TGA7 instrument. A few mg of sample was gently charged into open Pt-pans and analysed by weight in a flow of dry nitrogen gas (20 mL/min), to ensure an inert atmosphere. The sample was scanned from 25 to 200° C. using a continuous scan speed of 10° C./min. The weight loss was calculated from 25° C. up to 145° C.

[7] = Gravimetric/dynamic vapour sorption (GVS/DVS)
Experimental: Analyses were performed on an SMS DVS-1 instrument. A few mg of the substance was added into an Al pan and exposed to stepwise RH changes during two consecutive cycles according to 20-80-0-90-0%, in steps of 10% RH, using open loop mode. The experiments were performed using a gas flow rate of 200 mL/min and at 25° C. The dm/dt criteria applied was 0.001 weight-%/min during a 5-minute window, with a maximum allowed time of 360 minutes and a minimum allowed time of 10 minutes for all steps.
The hygroscopicity of Form 1 (obtained from the synthesis described below in example 1) was investigated using GVS at 25° C.

Which concentration at 22 h (clinical) does the source give for `Cc1cccc(C)c1CNc1cc(C(=O)NCCO)cn2c(C)c(C)nc12` [linaprazan] here?
Its concentration at 22 h is no less than 240 nM.

What about the “duration of acid inhibition” value (gastric acid) of the same compound?
The value was “too short duration of acid inhibition”.

What about the “onset of action / effect” value (gastric acid) of the same compound?
The value was “fast onset of action and full effect at first dose”.

And the “elimination from the body” value [1]?
Its value is “quickly eliminated from the body”.

What about the tolerability [1] of the same compound?
The tolerability was “well tolerated”.

Which hygroscopicity [2] does the source give for `Cc1cccc(C)c1CNc1cc(C(=O)NCCOC(=O)CCCC(=O)O)cn2c(C)c(C)nc12` [Form A] here?
Its hygroscopicity is “very low hygroscopicity”.

And the “physical and chemical stability” value [2]?
Its value is “good physical and chemical stability”.

What about the solubility in water ([3]; pH 1) of the same compound?
The solubility in water was “only slightly soluble”.

What about the solubility in water ([3]; pH 6.8) of the same compound?
The solubility in water was “practically insoluble”.

What does the source list for `Cc1cccc(C)c1CNc1cc(C(=O)NCCOC(=O)CCCC(=O)O)cn2c(C)c(C)nc12` [linaprazan glurate, 5-{2-[({8-[(2,6-dimethylbenzyl)amino]-2,3-dimethylimidazo[1,2-a]pyridine-6-yl}carbonyl)-amino]ethoxy}-5-oxopentanoic acid]?
control of the gastric acid production (intragastric acidity; compared to linaprazan): total control of the gastric acid production for a longer time; intragastric acidity (pH) maintained (intragastric acidity; single dose, maintained for 24 hours, clinical Phase I study): > 4; plasma concentration of linaprazan glurate ([4]; after administration of linaprazan glurate): only very low and difficult to determine; half-life in the body ([4]; compared to linaprazan): longer half-life in the body; metabolism ([4]; following absorption into the blood stream): quickly metabolized into linaprazan

With `Cc1cccc(C)c1CNc1cc(C(=O)NCCOC(=O)CCCC(=O)O)cn2c(C)c(C)nc12.O=C(O)/C=C\C(=O)O` [Form 1, maleic acid salt of 5-{2-[({8-[(2,6-dimethylbenzyl)amino]-2,3-dimethylimidazo[1,2-a]pyridine-6-yl}carbonyl)-amino]ethoxy}-5-oxopentanoic acid] as the compound, how does the Solid state form ([5]; slurry in 1,4-dioxane, 63 mg/mL, 40° C., 6 and 12 days) read?
Its Solid state form is “Form 1”.

And the Solid state form ([5]; slurry in 1,4-dioxane:DMA 9:1, 103 mg/mL, RT, 26 days)?
Its Solid state form is “Form 1”.

And the Solid state form ([5]; slurry in 2-propanol, 56 mg/mL, 40° C., 6 and 12 days)?
Its Solid state form is “Form 1 + Crystalline”.

And the Solid state form ([5]; slurry in 2-propanol:DMA 9:1, 91 mg/mL, RT, 26 days)?
The Solid state form was “Form 1”.

What about the Solid state form ([5]; slurry in DMA, 890 mg/mL, RT, 26 days) of the same compound?
Its Solid state form is “Crystalline base form”.

What about the Solid state form ([5]; slurry in DMA, 1369 mg/mL, 40° C., 6 and 12 days) of the same compound?
Its Solid state form is “Form 1 + Crystalline”.

And the Solid state form ([5]; slurry in EtOAc, 36 mg/mL, 40° C., 6 and 12 days)?
The Solid state form was “Form 1”.

And the Solid state form ([5]; slurry in EtOAc:DMA 9:1, 89 mg/mL, RT, 26 days)?
The Solid state form was “Form 1 + Crystalline”.

And the Solid state form ([5]; slurry in EtOH, 61 mg/mL, 40° C., 6 and 12 days)?
The Solid state form was “Form 1 + Crystalline”.

And the Solid state form ([5]; slurry in EtOH, 61 mg/mL, RT, 26 days)?
The Solid state form was “Form 1”.

What about the Solid state form ([5]; slurry in MIBK, 53 mg/mL, 40° C., 6 and 12 days) of the same compound?
Its Solid state form is “Form 1”.

What about the Solid state form ([5]; slurry in MIBK, 62 mg/mL, 60° C., 1 day) of the same compound?
The Solid state form was “Form 1”.

And the Solid state form ([5]; slurry in MIBK:DMA 9:1, 84 mg/mL, RT, 26 days)?
The Solid state form was “Form 1”.

What about the Solid state form ([5]; slurry in MTBE, 68 mg/mL, 40° C., 6 and 12 days) of the same compound?
Its Solid state form is “Form 1 + MTBE solvate”.

And the Solid state form ([5]; slurry in MTBE:DMA 9:1, 99 mg/mL, RT, 26 days, analysed also after 53 days)?
The Solid state form was “Form 1 + MTBE solvate*”.

What about the Solid state form ([5]; slurry in MeCN, 52 mg/mL, 40° C., 6 and 12 days) of the same compound?
The Solid state form was “Form 1”.

And the Solid state form ([5]; slurry in MeCN, 63 mg/mL, 60° C., 1 day)?
Its Solid state form is “Form 1”.

And the Solid state form ([5]; slurry in MeCN:DMA 9:1, 85 mg/mL, RT, 26 days)?
The Solid state form was “Form 1 + Crystalline”.

What about the Solid state form ([5]; slurry in MeOH, 51 mg/mL, 40° C., 6 and 12 days) of the same compound?
Its Solid state form is “Crystalline base form”.

What about the Solid state form ([5]; slurry in MeOH, 55 mg/mL, RT, 26 days) of the same compound?
Its Solid state form is “Form 1 + Crystalline”.

And the Solid state form ([5]; slurry in MeOH:water 4:1, 52 mg/mL, ca 4° C., 26 and 53 days)?
The Solid state form was “Form 1 + Crystalline”.

And the Solid state form ([5]; slurry in MeOH:water 4:1, 58 mg/mL, RT, 26 days)?
Its Solid state form is “Crystalline base form”.

And the Solid state form ([5]; slurry in THF, 53 mg/mL, 40° C., 6 and 12 days)?
Its Solid state form is “Form 1 + Crystalline”.

What about the Solid state form ([5]; slurry in THF, 63 mg/mL, 60° C., 1 day) of the same compound?
Its Solid state form is “Form 1”.

What about the Solid state form ([5]; slurry in THF:DMA 9:1, 93 mg/mL, RT, 26 days) of the same compound?
Its Solid state form is “Form 1 + Crystalline”.

And the Solid state form ([5]; slurry in acetone, 29 mg/mL, RT, analysed after 21 days)?
The Solid state form was “Form 1**”.

And the Solid state form ([5]; slurry in benzyl alcohol, 332 mg/mL, RT, analysed after 21 days)?
The Solid state form was “Form 1**”.

What about the “weight loss (TGA)” value [6] of the same compound?
Its value is 0.17%.

And the hygroscopicity classification ([7]; GVS/DVS at 25° C.)?
Its hygroscopicity classification is “slightly hygroscopic; also recorded: low hygroscopicity”.

And the water uptake ([7]; at 80% RH, dynamic vapour sorption)?
Its water uptake is “about 0.45%”.

And the uptake of water ([7]; humidity range 0 to 80% RH, GVS at 25° C.)?
Its uptake of water is roughly 0.4%.
